For series [1] the following is noted: cited from earlier work.
Series [2] concerns the target host eukaryotic DNA polymerase. The settings on record: cited from earlier work.
Series [3] deals with HSV-1 KOS infected Vero cells. Nature of the series: Efficacy of implants at preventing cytopathic effect in cell culture. In kind it is cell-based. To be noted: 48 hours post-infection; 0.22 ug ACV or two implants per well. The procedure: A six-well culture plate was prepared with 4 mL of Dulbecco's modified Eagles' medium (DMEM) (Invitrogen) supplemented with 10% fetal bovine serum and 1% penicillin-streptomycin-Amphotericin B solution (Mediatech) per well. […] The plate was incubated for two days at 37° C. and 5% CO2. Vero cells (ATCC CCL-81) were then added to each well and allowed to grow for another 48 hours until almost confluent. HSV-1 KOS (9.0×10^3 pfu) (ATCC VR-1493) was added to one of each of the paired wells, and 24 and 48 hours later the cells were photographed with a Nikon D1 2.6 megapixel digital camera, set in black and white mode, attached to an Olympus CK-40 microscope. The resulting digital images were compiled for presentation with Adobe Photoshop.
All mock-infected Vero cells remained healthy 48 hours after infection (FIGS. 8A-8C).

Another series has as its system HSV-1. The settings on record: cited from earlier work.

Here are results for 3 compounds from US20080003250A1, “NOVEL THERAPY FOR HERPESVIRUS INFECTION” (priority 2006, published 2008).

`CC(C)[C@H](N)C(=O)OCCOCn1cnc2c(=O)[nH]c(N)nc21` [valacyclovir]: the “bioavailability, of the oral dose consumed” value in series [1] was “about 50%”.

As to `Nc1nc2c(ncn2COCCOP(=O)(O)OP(=O)(O)OP(=O)(O)O)c(=O)[nH]1` [ACV-triphosphate, ACV triphosphate], the Ki in series [2] was 0.96 ± 0.08 µM.

For `Nc1nc2c(ncn2COCCO)c(=O)[nH]1` [ACV, acyclovir], in series [3], the “cytopathic effect (CPE) in HSV-1-infected Vero cells” value is listed as “Moderate CPE (cell rounding)” and the “plaque formation in HSV-1-infected Vero cells” value was “no plaque formation”. Also, the “50% inhibitory dose against HSV-1” value in the series with HSV-1 is listed as “about 0.03 ug/mL”.

The term Ki denotes the dissociation constant of the complex between target and ligand, obtained from inhibition or displacement.
